Reference: PubChem BioAssay AID179 (DTP/NCI, 2004)
Activity calls are given as the source filed them.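 How the source made its calls: active means compounds giving half or more protection of infected cells from virus-caused growth loss, again on retest; inactive means the rest.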

System: CEM cells HIV-1 protection, formazan growth assay
Assay: NCI AIDS Antiviral Assay
Conditions: for IC50: measured here: growth of uninfected CEM cells
Summary of the method: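 Human CEM cells, uninfected and HIV-1-infected, exposed to five drug concentrations; growth measured by soluble formazan assay and scored as percent protection from infection, with protecting compounds retested.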

SMILES	outcome	EC50	IC50
CN(C)CC1CCCC/C1=N/O (configuration not stated)	inactive	–	–
CCOC(=O)C1SC(=Nc2ccc(Cl)cc2C)N=C1C (configuration not stated)	–	> 32.4 µM	> 32.4 µM
CC12CCCCC1=C(F)C(F)(F)S2 (configuration not stated)	–	> 200 µM	115 µM
O=C(/C=C/c1cccs1)c1ccccc1Cl	–	> 200 µM	11.2 µM
O=c1c2cncnc2sc2nccn12	–	> 200 µM	> 200 µM
COC1OC(COCc2ccc(Cl)cc2)C(OCc2ccc(Cl)cc2)C1N=[N+]=[N-] (configuration not stated)	inactive	–	–
O=c1n(CCO)nc2n1CCCN2	–	> 200 µM	> 200 µM
CC(=O)C(=CC=C(c1ccc(N(C)C)cc1)c1ccc(N(C)C)cc1)C(C)=O	–	> 5.37 µM	3.24 µM
CCCC(C(=O)OC)C(=O)C(C)c1nc2n(c1O)C(=N)N=N2 (configuration not stated)	–	> 200 µM	> 200 µM
CCCCCCCCC(O)c1ccc(/C=C\C(O)CCCC(=O)O)s1 (configuration not stated)	–	> 63.1 µM	> 63.1 µM
OC1NC2Nc3ccccc3NC2NC1O (configuration not stated)	–	> 200 µM	> 200 µM
CC1=C/C(=N\NC(N)=S)C(C(O)(C(F)(F)F)C(F)(F)F)C(C)(C)C1 (configuration not stated)	–	> 200 µM	89.1 µM
COC1CC(Br)(C#N)C1 (configuration not stated)	inactive	–	–
CN(C)CC1COC2Cc3ccccc3C1O2 (configuration not stated)	–	> 200 µM	> 200 µM
COC(=O)c1c2c(cc3c1CC1(Cc4cc5c(cc4C1)CCCC5)C3)CCCC2	–	> 200 µM	> 200 µM
CN(C)C(c1ccccc1)C(O)c1ccccc1 (configuration not stated)	inactive	–	–
S=c1[nH]c2ccc(Br)cc2c(=S)n1-c1ccccc1	–	> 195 µM	56.2 µM
CC(=O)c1cccc(NC(=O)C(=O)C(c2cnc3ccc([N+](=O)[O-])cc3n2)[N+](=O)[O-])c1 (configuration not stated)	–	> 117 µM	> 117 µM
Cc1nc(C)c(N2CCNCC2)c(=O)[nH]1	inactive	–	–
CC1=NN(C(=O)c2ccc(Cl)cc2)C(=O)/C1=C/c1ccccc1O	–	> 20.9 µM	> 20.9 µM
N#Cc1cc(NC(=O)c2ccccc2)c(=O)n2c1[nH]c1ccccc12	inactive	–	–
CCOC(=O)C1C(c2ccc(O)c(OC)c2)c2c([nH][nH]c2=O)CC1(C)O (configuration not stated)	–	> 200 µM	> 200 µM
COC1(C)CCC2(O)C(=O)OC3C(O)COC32O1 (configuration not stated)	–	> 200 µM	> 200 µM

SMILES	outcome	EC50	IC50
C=C1C(=O)OC2CC(C)C(C(O)CC(C)O)=CCC12 (configuration not stated)	–	> 447 µM	8.32 µM
CC(C)=C=CP(=O)(O)c1ccccc1	–	> 200 µM	> 200 µM
C[C@]12CC[C@H](OC(=O)/C=C\c3ccccc3N(CCCl)CCCl)CC1CC[C@@H]1C2CC[C@]2(C)NC(=O)CCC12 (some centres not stated)	inactive	–	–
CC(=O)[O-].CC(=O)[O-].O=C(N/N=C/c1cc(Cl)cc(Cl)c1[OH2+])c1ccncc1.[Mn+2]	inactive	–	–
COc1cc(O)c2c(=O)c(OC)c(-c3ccc4c(c3)OCO4)oc2c1	–	> 200 µM	> 200 µM
CC1=CCCC2C(C1)C(=O)CC(C)C2(C)CC/C(=C/CO)CO (configuration not stated)	inactive	–	–
CN(C)c1ccc(C(=C(c2ccc(N(C)C)cc2)c2ccc(N(C)C)cc2)c2ccc(N(C)C)cc2)cc1	–	> 24.5 µM	1 µM
N#CC(NNC(=O)Cc1ccccc1)c1cccc(O)c1 (configuration not stated)	–	> 468 µM	158 µM
C#CC(O)/C=C/C(O)CCCC(O)CC#CC(O)C#CCCCCC(O)/C=C/CCCC(O)/C=C/CCCCCCCCCCCCCC(O)C(O)C#CC(=O)O (configuration not stated)	–	> 50.1 µM	28.8 µM
C[C@]12CC(C=O)C(=O)C(O)=C1CC[C@@H]1C2CC[C@@]2(C)C1CC[C@]2(C)O (some centres not stated)	inactive	–	–
C/C(=N/O)c1ccc2c(c1)C(=NO)c1cc(/C(C)=N/O)ccc1-2	–	> 83.2 µM	11.5 µM
COC1(C)C(=O)N2C1N(C(C)=O)CC2(C)C (configuration not stated)	–	> 501 µM	> 501 µM
NC(=O)C1C(=O)c2cccc3c2C1CCCC3 (configuration not stated)	–	> 234 µM	69.2 µM
CN(C)c1ccc(-c2c(C#N)c(S)n(NS(=O)(=O)c3ccccc3)c(=O)c2C#N)cc1	–	> 200 µM	8.32 µM
CCNC(=O)C(O)C1(O)CCC2[C@@H]3CCC4=CC(=O)C=C[C@]4(C)C3C(O)C[C@@]21C (some centres not stated)	inactive	–	–
COC(=O)c1ccn2c(N(C)C)[n+]3ccc(C(=O)OC)cc3c2c1	–	> 100 µM	> 100 µM
O=[N+]([O-])c1cc([N+](=O)[O-])c2no[n+]([O-])c2c1Nc1ccccc1	–	> 56.2 µM	> 56.2 µM
C1CCN(c2nc(=[N+]3CCCCC3)ss2)CC1	inactive	–	–
C=C(C)C(=O)OC1C[C@H](COC(C)=O)C2CC=C(C)C2C2OC(=O)C(=C)[C@H]12 (some centres not stated)	–	> 200 µM	1.05 µM
CC(C)(C)n1[nH]c(=O)n(C(C)(C)C)c1=O	–	> 200 µM	> 200 µM
NCC1OC(OC2C(CO)OC(OC3C(O)C(N)CC(N)C3OC3OC(CN)C(O)C(O)C3N)C2O)C(N)C(O)C1O (configuration not stated)	inactive	–	–
CCOC(=O)/C(C(=O)c1ccc[nH]1)=C1/CCCN1C	–	> 200 µM	129 µM
COc1cc(NC(=O)c2ccc(NC(=O)c3ccc(N)cc3)cc2)c(OC)cc1N=Nc1ccc(N=Nc2ccc3cc(S(=O)(=O)O)cc(S(=O)(=O)O)c3c2)c(C)c1	–	19.5 µM	> 100 µM

SMILES	outcome	EC50	IC50
CCN1/C(=C/C#C/C(C)=C\c2sc3ccc(Cl)cc3[n+]2CC)Sc2ccc(Cl)cc21	–	> 20 µM	2.24 µM
CC(O)c1ccc(C(O)/C(=N\NC(=O)c2ccncc2)c2nc3ccc([N+](=O)[O-])cc3[nH]c2=O)cc1 (configuration not stated)	–	> 74.1 µM	60.3 µM
Cn1c2ccccc2n2c3ccccc3c(=O)c(C#N)c12	–	> 200 µM	2.57 µM
COc1ccc2c(c1)nc1n2C(c2c(Cl)cccc2Cl)SC1 (configuration not stated)	–	> 200 µM	33.1 µM
Cn1c(=O)c2c(c3c(c(=O)n(C)c(=O)n3C)n2Cc2ccccc2)n(C)c1=O	–	> 93.3 µM	> 93.3 µM
COC(=O)Cc1c(C2=Nc3ccccc3C2(O)CC(=O)OC)[nH]c2ccccc12 (configuration not stated)	–	> 200 µM	91.2 µM
O=[N+]([O-])c1ccccc1OCCOc1ccccc1[N+](=O)[O-]	–	> 200 µM	> 200 µM
C1=CC(N(c2ccccc2)C2C=CCCC2)CCC1 (configuration not stated)	inactive	–	–
CC1(C)C2CCC13CS(=O)(=O)N=C3C2 (configuration not stated)	inactive	–	–
COC(=O)CCS/C=C/C(=O)O	–	> 1320 µM	> 1320 µM
COc1ccc(N=C2C(=Nc3ccc(OC)cc3)N(c3ccccc3[N+](=O)[O-])C(=S)N2c2ccc(OC)cc2)cc1	–	> 200 µM	47.9 µM
COc1cccc2c1C(=O)c1c(O)c3c(c(O)c1C2=O)C[C@@](O)(C(=O)CO)C[C@@H]3OC1CC(N2CCOCC2)C(O)C(C)O1 (some centres not stated)	inactive	–	–
O=C(Nc1ccccn1)c1ccccc1[Se][Se]c1ccccc1C(=O)Nc1ccccn1	–	3.55 µM	8.13 µM
OC12CCC3(OC4CCCCO4)c4ccccc4C3C1c1ccccc12 (configuration not stated)	–	> 200 µM	89.1 µM
C(=C\C(Sc1ccccc1)c1ccccc1)/NNC1=NC(c2ccccc2)C(c2ccccc2)=NN1 (configuration not stated)	–	> 14.8 µM	> 14.8 µM
CCOC(=O)C(NC(=O)C(CCCCNP(=O)(OCC)OCC)NC(=O)C(C)NC(C)=O)C(C)C (configuration not stated)	–	> 200 µM	> 200 µM
CCC1=C(OC)c2nc(C)ccc2C(=O)C1=O	inactive	–	–
O=C1CC2(Cl)CN3c4ccccc4C(=O)CC3(Cl)CN2c2ccccc21 (configuration not stated)	–	> 57.5 µM	> 57.5 µM
NCCCNCCCCNC(=O)C(O)NC(=O)CCCCCCN=C(N)N (configuration not stated)	–	288 µM	501 µM
COC1/C=C/OC2(C)Oc3c(C)c(O)c4c(O)c(cc(OCC(=O)N5CCCCCC5)c4c3C2=O)NC(=O)/C(C)=C\C=C\C(C)C(O)C(C)C(O)C(C)C(OC(C)=O)C1C (configuration not stated)	–	> 200 µM	39.8 µM
O=C(CC(=O)Nc1ccccc1Cl)NNC(Sc1ccccc1)c1cc(N=Nc2ccc(Br)cc2)ccc1O (configuration not stated)	–	> 100 µM	1.91 µM
CC1CC(c2ccc(Cl)cc2)=Nc2ccccc2S1 (configuration not stated)	–	> 6.92 µM	> 6.92 µM
CCOC(=O)C1=CNC(C(=O)OCC)C1c1cccn1-c1ccc(Cl)cc1[N+](=O)[O-] (configuration not stated)	–	> 200 µM	26.3 µM

SMILES	outcome	EC50	IC50
Cc1cc2cc3c(C)cc(=O)oc3c(C)c2o1	–	> 56.2 µM	> 56.2 µM
COC(=O)/C=C\c1ccc2c(c1)CC1(C2)Cc2ccc(/C=C/C(=O)OC)cc2C1 (configuration not stated)	–	> 200 µM	> 200 µM
O=C1C2C3C=CC(C2C(=O)N1COP(=O)(O)O)C1C2C(=O)N(COP(=O)(O)O)C(=O)C2C31 (configuration not stated)	–	> 100 µM	> 100 µM
C=C1CN(S(=O)(=O)c2ccc(C)cc2)CCCN(Cc2cccn2C)CCCN(S(=O)(=O)c2ccc(C)cc2)C1	–	> 200 µM	38.9 µM
c1ccc(N2N=NC3CCCC32N2CCCCC2)cc1 (configuration not stated)	–	> 200 µM	110 µM
CC(=O)CN=C(C)NNc1ccc([N+](=O)[O-])cc1[N+](=O)[O-]	–	> 200 µM	60.3 µM
CCCC/C=C(/CCCNCCc1ccccc1)[Si](C)(C)C	–	> 81.3 µM	> 81.3 µM
CCN(CC)CCCN1CC(=O)N2CCCCN2C(=O)C1	–	> 200 µM	> 200 µM
C[C@]12CCC3C(CC[C@H]4C/C(=C/C#N)CC[C@]34C)C1CC/C2=C\C#N (some centres not stated)	–	> 100 µM	25.7 µM
Clc1ccc(/C=N/N=C/c2ccc(Cl)cc2)cc1	inactive	–	–
CC(C)C1=CC2C3C(=O)NC(=O)C3C1C1C3C(=O)NC(=O)C3C21 (configuration not stated)	–	> 794 µM	> 794 µM
Cc1cc(Cc2cccc3ccccc23)nc2c1ccc1ccccc12	–	> 200 µM	110 µM
O=C(/C=C/c1ccsc1)c1ccc(Cl)s1	–	> 200 µM	–
CCOC(=O)c1ccc(CS(=O)c2ccc(OC)cc2)c([N+](=O)[O-])c1 (configuration not stated)	–	> 100 µM	12.3 µM
CCOC(=O)c1ccc(/C(C)=N/NC(N)=S)cc1	inactive	–	–
N#Cc1c(O)c(N=Nc2ccccc2F)c(=O)n2c1[nH]c1ccccc12	–	> 200 µM	18.6 µM
CCCCn1c(N)n[nH]c1=S	inactive	–	–
c1ccc2c(c1)CCN2CCN1CCc2ccccc21	–	> 200 µM	145 µM
COc1ccc(-c2cc(NC(=O)c3cnccn3)c(=O)oc2C)cc1	–	> 200 µM	170 µM
CCN(CC)CCNC(=O)c1ccc(C)c(OCc2ccccc2)c1[N+](=O)[O-]	–	> 200 µM	33.9 µM
